# Key:
# [1] = test system: COX (cyclooxygenase); assay: COX inhibitory ability in LPS-treated THP-1 cells; format: cell-based, human; details: LPS alone = 100
# Description: To determine whether α-bisabolol had anti-inflammatory effects, the experiment of COX (cyclooxygenase) inhibitory ability was carried out using human monocytic cell, THP-1 cell (Korean Cell Line Bank) according to conventional method. The COX activity was measured in accordance with Methods in Enzymology 43:9 (1994) published by F. J. Van de Ouderaaa and Muytenhek. THP-1 cell line was cultivated and aliquoted into 24-well plate. The incubation volume per well was adjusted to 500 μl, 2 μl of the sample compound, which dissolved in lipopolysaccahride (1 μg/ml, Sigma) and solvents described in the following Table respectively, was added and cultivated for 24-48 hr under the same condition. After 24-48 hr, calcium ionophore (Sigma) and [1-14C] arachidonic acid 1 μl (in EtOH, 0.1 μCi/ml, Sigma) were added to each well, and cultivated for 10 min under the same condition. Following the cultivation, citric acid was added to each well for adjusting to pH 3.5, shaked, each 500 μl of cultivation solution taken from the plate was aliquoted into micro centrifuge tube, 700 μl of ethylacetate was added to thereto, and the solution was shaking extracted for 10 min. 500 μl of ethylacetate layer was concentrated using speed vacuum dryer for 20 min, 20 μl of the residual was dissolved in ethylacetate, and the resultant was employed with authentic standard in TLC plate. The radioactive band was identified by authentic eicosanoid standards, the radioactivity of the identified band was measured using BAS 2000 bio-imaging analyzer (Fuji, JP) (Table 7).
# [2] = test system: Interleukin-2 promoter; assay: Interleukin-2 luciferase reporter activity in PHA-activated Jurkat cells; format: cell-based, human; details: 24 hr, PHA alone = 100
# Description: Interleukin-2 promoter was reported to play an important role in the generation of cytokine related to inflammatory. The activity of interleukin-2 luciferase was measured using the following method: Human T lymphocytes cell line, 1×10^6 of Jurkat cell (Korean Cell Line Bank) were aliquoted into each well of 6-wells, IL-2 luciferase reporter plasmid DNA (Stratagene) was transfected using superfect transfection reagent (In vitrogen). 24 hr after transfection, PHA (Phytohemaglutinin, Sigma) (100 ng/ml) was treated to activate Jurkat cell and each samples was treated with varying concentration. Following 24 hr, the cell was collected and the luciferase activity was measured using luminometer (Berthold Technologies GmbH&Co.KG, Germany).
# [3] = test system: B16 mouse melanoma cells; assay: Cytotoxicity at the test concentrations in B16 melanoma cells; format: cell-based; details: 1 ppm, 5 ppm and 10 ppm
# [4] = Anti-oxidation: removal of superoxide anion (SOD Assay Kit-WST); format: biochemical
# Description: Superoxide dismutase (SOD) has been known as an anti-oxidation-catalyzing enzyme which converts superoxide anion into H2O2 and O2. This experiment evaluates anti-oxidation activity of samples by observing removal of superoxide anion generated by xanthine oxidase. The experiment was performed using the kit (SOD Assay Kit-WST) purchased from Dojindo (JP) in accordance with manufacture's protocol.
# [5] = test system: B16 mouse melanoma cells; assay: Inhibition of melanin production in B16 mouse melanoma cells; format: cell-based; details: 72 h, B16 F10 cells, 3 days, read-out: Inhibitory rate of melanin production (%)
# Description: This cell pellets were dried at 60° C., 100 μl of 1M NaOH containing 10% DMSO was added to thereto, and intracellular melanin was obtained in incubator at 60° C.
# [6] = test system: brown guinea pigs; assay: Skin whitening effect in UV-pigmented brown guinea pigs; format: in vivo, guinea pig; details: for Whitening effects (ΔL): once or twice a day for 50 days, control ΔL 0.35
# Description: A skin whitening effect of α-bisabolol was measured using brown guinea pigs (Charles River Laboratories, Inc.) pigmentation of which is known to increase upon exposure to ultraviolet light like human.
# To induce pigmentation in the brown guinea pig by ultraviolet (UV), aluminum foil with square windows of 3×3 cm^2 was adhered to hair-removed abdominal skin of brown guinea pig, and then UV light was irradiated thereon with a SE lamp (wavelength 290-320 nm, Toshiba) (total irradiation energy=1350 mJ/cm^2). After UV irradiation, the aluminum foil was removed and samples (α-bisabolol or arbutin) were applied as the following method. Increased pigmentation was observed on 2-3 days after UV irradiation and reached a maximum after about 2 weeks. Following the period of time showing the maximum pigmentation, samples were applied.
# The application of samples was performed once or twice a day for 50 days. The samples were dissolved or diluted in a solvent (Propylene glycol:ethanol:water 5:3:2) and applied by a swab. The control with only the solvent was applied to another site. The occurrence of cumulative irritation was also examined.
# The degree of pigmentation of skin was determined using a chromameter (CR2002, MINOLTA, JP) to estimate the effects of applied samples. La*b* calorimetric system was used to classify color and L* value was used as standard in Example. The L* value was corrected using white board standard and was measured more than five times at one site. Pigmentation was evenly distributed. Skin color differences (ΔL*) between application starting point and application end point were obtained and used to evaluate effects of samples.
# ΔL*=L* value on […] after application−L* value on application starting day Equation 1
# ΔL* values were obtained for control and sample application to evaluate skin whitening effects.
# [7] = molecular target: T1, intracellular tyrosinase (Mus musculus, UniProt P11344); assay: Inhibition of intracellular tyrosinase activity in murine melanoma (B-16 F1) cells; details: B16-F1, read-out: Inhibitory rate of intracellular tyrosinase activity (%)
# T1 sequence (P11344 19-533): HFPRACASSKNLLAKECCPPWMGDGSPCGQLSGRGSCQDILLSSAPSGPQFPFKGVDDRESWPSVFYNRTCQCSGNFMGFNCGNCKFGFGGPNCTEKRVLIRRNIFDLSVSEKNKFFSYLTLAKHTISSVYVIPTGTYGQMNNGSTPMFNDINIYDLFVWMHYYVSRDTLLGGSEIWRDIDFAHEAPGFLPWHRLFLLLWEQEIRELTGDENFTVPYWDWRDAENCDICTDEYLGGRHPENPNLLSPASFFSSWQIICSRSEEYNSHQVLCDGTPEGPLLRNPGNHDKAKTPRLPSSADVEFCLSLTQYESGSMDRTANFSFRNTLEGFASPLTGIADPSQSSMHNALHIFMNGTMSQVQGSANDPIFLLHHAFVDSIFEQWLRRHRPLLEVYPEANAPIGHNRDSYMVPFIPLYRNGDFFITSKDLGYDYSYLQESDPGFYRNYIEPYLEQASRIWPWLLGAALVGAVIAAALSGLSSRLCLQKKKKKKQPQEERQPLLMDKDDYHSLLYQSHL
# Description: After measuring the inhibition of melanin production by α-bisabolol using B16 mouse melanoma cells (Korean Cell Line Bank), the measurement was compared with that for the inhibition of intracellular tyrosinase activities by arbutin, known as a melanin production inhibitor. Murine melanoma (B-16 F1) cells were seeded into each well of a 6-well plate (1×10^5 cells/well) in DMEM containing 10% FBS (fetal bovine serum) and the cells were cultured to about more than 80% adherence by incubating in a CO2 incubator under conditions of 37° C. and 5.0% CO2. After cultivation, the medium was removed and samples were replaced in medium diluted at suitable concentration, followed by incubating for 3 days under conditions of 37° C. and 5.0% CO2. […] The cells removing medium were washed with PBS (phosphate buffer saline) and treated with trypsin to collect cells. The number of the collected cells was calculated using hematocytometer, centrifuged at 5,000 to 10,000 rpm for 10 min and the supernatant was eliminated, thereby obtaining pellets. This cell pellets were lysated using lysis buffer, centrifuged at 12,000 rpm for 10 min and the supernatant was collected. Then, the cell solution was measured for absorbance at 492 nm using microplate reader and the activity of tyrosinase per cell constant number was estimated.
# [8] = Obesity inhibition test in ICR male mice (body weight); format: in vivo, mouse; details: single forced administration
# Description: An obesity inhibition test was performed by the following method using well-known laboratory animals. The process for determining obesity-inhibitory activity was as follows: Crj: 7 week-old ICR male mice (obtained from Charles River Japan Ltd) weeks were preliminarily fed for 1 week, then classified into groups each having 7 animals and subjected to the test. The animals were fed under controlled conditions at a temperature of 23±1° C., and a humidity of 55±5% under illumination for 12 hours per day. They were fed with a feed Labo MR (manufactured by Nippon Nosan) and allowed to take water ad libitum. α-Bisabolol was present in the form of liposome (prepared with 5% lecithin) to the final concentration of either 0.1% or 1%. The concentration of each sample solution was adjusted so that 0.1 ml of the solution was given per 10 g body weight of mice. The doses employed were […] and 1 g/kg. To a control group, 5% lecithin emulsion was administered. After fasting the mice, the sample was administered once by force on the next day. During the test period over 2 weeks, the body weight and general conditions were monitored.
# [9] = test system: collagenase; assay: Collagenase activity in human fibroblast medium (Type 1 collagenase assay kit); format: cell-based; details: human fibroblasts, 24 hr
# Description: (§1) Human fibroblasts (commercially available from pacific) were seeded into a 6-well plate (2×10^5 cells/well) and the well plate was incubated in a 5% CO2 incubator for 24 hr at 37° C. After 24 hr, the medium in each well was removed and cells were incubated with various concentrations of samples for 24 hr. Afterwards, the cell medium was collected and was used as samples.
# For measuring the collagenase activity, antibodies against collagenase was used. The collagenase activity was measured using a Type 1 collagenase assay kit (Amersham Biosciences, RPN2629) and the absorbance values were obtain using an ELISA reader (Bio-Tek ELx808™ Series Ultra Microplate Reader, U.K). The measured average values were represented as mean±standard deviation.
# [10] = test system: procollagen type I C-peptide (PICP); assay: Collagen synthesis (procollagen type I C-peptide) in human fibroblasts; format: cell-based; details: 24 hr
# Description: as §1, with “samples. The potential of collagen synthesis was determined by measuring the amount of procollagen type I C-peptide (PICP) in cell medium using Procollagen Type I C-peptide EIA kit (MK101, Takara, Kyoto, Japan) in accordance with manufacturer's protocol.” for “samples.”
smiles,measurement,setting,value
"CC(C)=CCC[C@](C)(O)C1CC=C(C)CC1 (stereo in doubt) [α-Bisabolol, (2S)-6-methyl-2-[(1R)-4-methyl-1-cyclohex-3-enyl]hept-5-en-2ol]",COX activities (%),[1]; 1 ppm with LPS (1 μg/ml),95%
same,COX activities (%),[1]; 5 ppm with LPS (1 μg/ml),75%
same,COX activities (%),[1]; 10 ppm with LPS (1 μg/ml),67%
same,IL-2 luciferase activities,[2]; 1 ppm with PHA (100 ng/ml),92
same,IL-2 luciferase activities,[2]; 5 ppm with PHA (100 ng/ml),72
same,IL-2 luciferase activities,[2]; 10 ppm with PHA (100 ng/ml),58
same,Cytotoxicity,[3],did not show cytotoxicity
same,Removal rate of superoxide anion (%),[4]; 1 ppm,8%
same,Removal rate of superoxide anion (%),[4]; 5 ppm,18%
same,Removal rate of superoxide anion (%),[4]; 10 ppm,34%
same,inhibition at 1 ppm,[5]; 1 ppm,24%
same,inhibition at 5 ppm,[5],36%
same,inhibition at 10 ppm,[5]; 10 ppm,49%
same,Whitening effects (ΔL),[6]; 0.2 % topical,0.42
same,Whitening effects (ΔL),[6]; 1.0 % topical,0.67
same,Cumulative irritation,[6]; topical on brown guinea pig skin for 50 days,no observation of cumulative irritation
same,inhibition at 1 ppm,[7],13%
same,inhibition at 5 ppm,[7],38%
same,inhibition at 10 ppm,[7],58%
same,Body weight,"[8]; 0.1% in liposome, day 5, untreated 24",24 g
same,Body weight,"[8]; 0.1% in liposome, day 10, untreated 28",24 g
same,Body weight,"[8]; 0.1% in liposome, day 15, untreated 34",26 g
same,Body weight,"[8]; 1% in liposome, day 5, untreated 24",23 g
same,Body weight,"[8]; 1% in liposome, day 10, untreated 28",24 g
same,Body weight,"[8]; 1% in liposome, day 15, untreated 34",26 g
same,Inhibition of collagenase (%),[9]; 1 ppm,12%
same,Inhibition of collagenase (%),[9]; 5 ppm,28%
same,Inhibition of collagenase (%),[9]; 10 ppm,43%
same,Increase of collagen synthesis (%),[10]; 1 ppm,23%
same,Increase of collagen synthesis (%),[10]; 5 ppm,43%
same,Increase of collagen synthesis (%),[10]; 10 ppm,76%
"OC[C@H]1O[C@@H](Oc2ccc(O)cc2)[C@H](O)[C@@H](O)[C@@H]1O [Arbutin, reference compound]",inhibition at 5 ppm,[5],22%
same,Whitening effects (ΔL),[6]; 1.0 % topical,0.54
same,inhibition at 5 ppm,[7],45%

# Source: patent US20100015071A1, “Compositions for Improving Skin Conditions Comprising Alpha-Bisabolol as an Active Ingredient” (Biospectrum Inc., priority 2007, published 2010)
